The term pEC50 denotes the EC50 on a negative log10 scale, so that one unit is a factor of ten. By pIC50 is commonly meant the negative decadic logarithm of the IC50, by convention in mol/L.

The structures appear in SMILES notation. pEC50, pIC50: −log10 of the molar value.

Test [1] concerns AR / CBP ternary complex. Description: Ternary complex formation assay (sandwich ELISA, AR capture / CBP detection) in VCaP cell lysates. The note with it: 1.5 hours treatment, sandwich ELISA (AR capture, CBP or p300 detection). It counts as cell-based. A digest of the protocol:
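Anti-AR (AR 441)-coated plates capture AR from lysates of VCaP cells grown ≥3 days at 50K/well in 5% charcoal-stripped FBS, dosed with bifunctional for 1.5 h and lysed 30 min at 4 °C. Co-captured CBP/p300 is probed with rabbit mAb and HRP anti-rabbit, then QuantaRed fluorescence (570/585) is read at 0, 5 and 15 min.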

Test [2] concerns VCaP cells. Description: VCaP growth inhibition assay. It counts as cell-based. The settings on record: 30 pM R1881, 9 days, CTG. A digest of the protocol:
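Growth read by CTG luminescence after 9-day exposure to compound (final 100 nM–10 fM, 1:5 steps) plus 30 pM R1881, in phenol red-free DMEM with 5% CSS. Cells pre-incubated 72 h before dosing; IC50 by nonlinear 4-parameter regression.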

Turning to `CC(=O)N1CCc2c(c(-c3cccc4cc(-c5ccc(CCC6CCN(c7ncc(C(=O)NC8C(C)(C)C(Oc9ccc(C#N)c(Cl)c9)C8(C)C)cn7)CC6)nc5)ncc34)nn2C)C1` (stereo not shown) [Compound 231, 2-[4-[2-[5-[8-(5-acetyl-1-methyl-6,7-dihydro-4H-pyrazolo[4,3-c]pyridin-3-yl)-3-isoquinolyl]-2-pyridyl]ethyl]-1-piperidyl]-N-[3-(3-chloro-4-cyano-phenoxy)-2,2,4,4-tetramethyl-cyclobutyl]pyrimidine-5-carboxamide], the pEC50 in test [1] was 7.00 to 8.00. In test [2], this compound gave a pIC50 of 9.00 to 10.00.

`Cn1c(=O)sc2ccc(N3CCCc4cc(-c5ccc(CCC6CCN(c7ncc(C(=O)NC8C(C)(C)C(Oc9ccc(C#N)c(Cl)c9)C8(C)C)cn7)CC6)nc5)c(C(F)F)cc43)cc21` (stereo not shown) [Compound 236, N-[3-(3-chloro-4-cyano-phenoxy)-2,2,4,4-tetramethyl-cyclobutyl]-2-[4-[2-[5-[7-(difluoromethyl)-1-(3-methyl-2-oxo-1,3-benzothiazol-5-yl)-3,4-dihydro-2H-quinolin-6-yl]-2-pyridyl]ethyl]-1-piperidyl]pyrimidine-5-carboxamide] showed a pEC50 in test [1] of under 7.00. The negative-log IC50 (pIC50) in test [2] was under 7.00.

Compound `COc1cc(OC2C(C)(C)C(NC(=O)c3ccc(N4CCC(C)(N5CCC(n6nc(N7CCCc8cc(-c9cnn(C)c9)c(C(F)F)cc87)c7c6CCN(C(C)=O)C7)CC5)CC4)cc3)C2(C)C)ccc1C#N` (stereo not shown) [Compound 305, 4-[4-[4-[5-acetyl-3-[7-(difluoromethyl)-6-(1-methylpyrazol-4-yl)-3,4-dihydro-2H-quinolin-1-yl]-6,7-dihydro-4H-pyrazolo[4,3-c]pyridin-1-yl]-1-piperidyl]-4-methyl-1-piperidyl]-N-[3-(4-cyano-3-methoxy-phenoxy)-2,2,4,4-tetramethyl-cyclobutyl]benzamide] had a negative logarithm of the EC50 (pEC50) in test [1] of over 9.00. The compound also showed a pIC50 in test [2] of at least 10.00.

In test [1], `CC(=O)N1CCc2c(c(N3CCCc4cc(-c5cnn(C)c5)c(C(F)F)cc43)nn2C2CCC3(CC2)CCN(CC2CN(c4ccc(C(=O)NC5C(C)(C)C(Oc6ccc(C#N)c(Cl)c6)C5(C)C)nn4)C2)CC3)C1` (stereo not shown) [Compound 209, 6-[3-[[9-[5-acetyl-3-[7-(difluoromethyl)-6-(1-methylpyrazol-4-yl)-3,4-dihydro-2H-quinolin-1-yl]-6,7-dihydro-4H-pyrazolo[4,3-c]pyridin-1-yl]-3-azaspiro[5.5]undecan-3-yl]methyl]azetidin-1-yl]-N-[3-(3-chloro-4-cyano-phenoxy)-2,2,4,4-tetramethyl-cyclobutyl]pyridazine-3-carboxamide] showed a pEC50 of 7.00 to 8.00. Also, in test [2], the pIC50 is at least 10.00.

In test [1], `COc1cc(OC2C(C)(C)C(NC(=O)c3ccc(N4CC(OC5CCC(n6nc(N7CCCc8cc(-c9cnn(C)c9)c(C(F)F)cc87)c7c6CCN(C(C)=O)C7)CC5)C4)cc3)C2(C)C)ccc1C#N` (stereo not shown) [Compound 343, 4-[3-[4-[5-acetyl-3-[7-(difluoromethyl)-6-(1-methylpyrazol-4-yl)-3,4-dihydro-2H-quinolin-1-yl]-6,7-dihydro-4H-pyrazolo[4,3-c]pyridin-1-yl]cyclohexoxy]azetidin-1-yl]-N-[3-(4-cyano-3-methoxy-phenoxy)-2,2,4,4-tetramethyl-cyclobutyl]benzamide] showed a pEC50 of over 9.00. Further, the pIC50 in test [2] was 9.00 to 10.00.

As for `COc1cc(OC2C(C)(C)C(NC(=O)c3ccc(N4CC(OC5CCC(n6nc(N7CCCc8cc(-c9cnn(C)c9)c(C(F)F)cc87)c7c6CCN(C(C)=O)C7)CC5)C4)cc3)C2(C)C)ccc1C#N` (stereo not shown) [Compound 342, 4-[3-[4-[5-acetyl-3-[7-(difluoromethyl)-6-(1-methylpyrazol-4-yl)-3,4-dihydro-2H-quinolin-1-yl]-6,7-dihydro-4H-pyrazolo[4,3-c]pyridin-1-yl]cyclohexoxy]azetidin-1-yl]-N-[3-(4-cyano-3-methoxy-phenoxy)-2,2,4,4-tetramethyl-cyclobutyl]benzamide], the pEC50 in test [1] is over 9.00. The pIC50 in test [2] was 9.00 to 10.00.

For the compound `COc1cc(OC2C(C)(C)C(NC(=O)c3ccc(N4CCC(CN5CCC(n6nc(N7CCCc8cc(C#N)c(C(F)F)cc87)c7c6CCN(C(C)=O)C7)CC5)C(C)(C)C4)cc3)C2(C)C)ccc1C#N` (stereo not shown) [Compound 451, 4-[4-[[4-[5-acetyl-3-[6-cyano-7-(difluoromethyl)-3,4-dihydro-2H-quinolin-1-yl]-6,7-dihydro-4H-pyrazolo[4,3-c]pyridin-1-yl]-1-piperidyl]methyl]-3,3-dimethyl-1-piperidyl]-N-[3-(4-cyano-3-methoxy-phenoxy)-2,2,4,4-tetramethyl-cyclobutyl]benzamide], the pEC50 in test [1] was over 9.00. In test [2], this compound had a pIC50 of 9.00 to 10.00.

In the case of `COc1cc(OC2C(C)(C)C(NC(=O)c3ccc(OC4CC(N5CCC(n6nc(N7CCCc8cc(-c9cnn(C)c9)c(C(F)F)cc87)c7c6CCN(C(C)=O)C7)CC5)C4)cc3)C2(C)C)ccc1C#N` (stereo not shown) [Compound 375, 4-[3-[4-[5-acetyl-3-[7-(difluoromethyl)-6-(1-methylpyrazol-4-yl)-3,4-dihydro-2H-quinolin-1-yl]-6,7-dihydro-4H-pyrazolo[4,3-c]pyridin-1-yl]-1-piperidyl]cyclobutoxy]-N-[3-(4-cyano-3-methoxy-phenoxy)-2,2,4,4-tetramethyl-cyclobutyl]benzamide], the pEC50 in test [1] is over 9.00. This compound also showed a pIC50 in test [2] of 9.00 to 10.00.

With `CC(=O)N1CCc2c(c(-c3cccc4cc(-c5ccc(CC6CC7(C6)CN(c6ncc(C(=O)NC8C(C)(C)C(Oc9ccc(C#N)c(Cl)c9)C8(C)C)cn6)C7)nc5)ncc34)nn2C)C1` (stereo not shown) [Compound 230, 2-[6-[[5-[8-(5-acetyl-1-methyl-6,7-dihydro-4H-pyrazolo[4,3-c]pyridin-3-yl)-3-isoquinolyl]-2-pyridyl]methyl]-2-azaspiro[3.3]heptan-2-yl]-N-[3-(3-chloro-4-cyano-phenoxy)-2,2,4,4-tetramethyl-cyclobutyl]pyrimidine-5-carboxamide], the pEC50 in test [1] is 7.00 to 8.00. The same compound showed a pIC50 in test [2] of 9.00 to 10.00.

For the compound `CC(=O)N1CCc2c(c(N3CCCc4cc(-c5cnn(C)c5)c(C(F)F)cc43)nn2C2CC3(C2)CN(CC2CC4(C2)CN(c2ncc(C(=O)NC5C(C)(C)C(Oc6ccc(C#N)c(Cl)c6)C5(C)C)cn2)C4)C3)C1` (stereo not shown) [Compound 216, 2-[6-[[6-[5-acetyl-3-[7-(difluoromethyl)-6-(1-methylpyrazol-4-yl)-3,4-dihydro-2H-quinolin-1-yl]-6,7-dihydro-4H-pyrazolo[4,3-c]pyridin-1-yl]-2-azaspiro[3.3]heptan-2-yl]methyl]-2-azaspiro[3.3]heptan-2-yl]-N-[3-(3-chloro-4-cyano-phenoxy)-2,2,4,4-tetramethyl-cyclobutyl]pyrimidine-5-carboxamide], the pEC50 in test [1] is over 9.00. In test [2], this compound gave a pIC50 of at least 10.00.

On to `CC(=O)N1CCc2c(c(N3CCCc4cc(-c5cnn(C)c5)c(C(F)F)cc43)nn2CCCOC2CCN(c3ncc(C(=O)NC4C(C)(C)C(Oc5ccc(C#N)c(Cl)c5)C4(C)C)cn3)CC2)C1` (stereo not shown) [Compound 9, 2-[4-[3-[5-acetyl-3-[7-(difluoromethyl)-6-(1-methylpyrazol-4-yl)-3,4-dihydro-2H-quinolin-1-yl]-6,7-dihydro-4H-pyrazolo[4,3-c]pyridin-1-yl]propoxy]-1-piperidyl]-N-[3-(3-chloro-4-cyano-phenoxy)-2,2,4,4-tetramethyl-cyclobutyl]pyrimidine-5-carboxamide], for which, in test [1], the pEC50 was over 9.00. In addition, the pIC50 in test [2] was 9.00 to 10.00.

(Values after US20250129070A1, “BIFUNCTIONAL ANDROGEN RECEPTOR COMPOUNDS” (priority 2023, published 2025).)
